The results in this text go back to ChEMBL document CHEMBL1126484, “Backbone modified formyl-methionyl tripeptide chemoattractants” (1993).

Where a SMILES comes first, the peptide text is derived from it.

Format in all cases: functional
The species named for assay [1] is Oryctolagus cuniculus. Nature of the assay: Maximum percentage induction of the secretion of beta-glucosaminidase from cytochalasin beta-treated rabbit peritoneal polymorphonuclear leukocytes (neutrophils).
Assay [2] is filed under the species Oryctolagus cuniculus. The assay is described as follows: Effective dose to induce the secretion of beta-glucosaminidase from cytochalasin beta-treated rabbit peritoneal polymorphonuclear leukocytes (neutrophils). Conditions: read-out: ED50 (the source's name).
The species named for assay [3] is Oryctolagus cuniculus. Nature of the assay: Relative potency with respect to HCO-L-Met-L-Leu-L-Phe-OMe (1) was determined.

Regarding `COC(=O)[C@H](Cc1ccccc1)NC(=O)[C@@](C)(NC(=O)[C@H](CCSC)NC=O)C(C)C`, the Max in the assay listed under Oryctolagus cuniculus [1] is listed as 32%. Also, in the assay listed under Oryctolagus cuniculus [2], the EC50 is 0.027 nM. Besides, the Relative potency in the assay listed under Oryctolagus cuniculus [3] was determined as 2.5.

For the compound `CC[C@](C)(NC(=O)[C@H](CCSC)NC=O)C(=O)N[C@@H](Cc1ccccc1)C(=O)OC`, the Max in the assay listed under Oryctolagus cuniculus [1] turned out to be 32%. Further, in the assay filed under Oryctolagus cuniculus [2], the EC50 was found to be 0.17 nM. The Relative potency in the assay listed under Oryctolagus cuniculus [3] is recorded as 0.4.

Regarding `COC(=O)[C@H](Cc1ccccc1)NC(=O)[C@H](CC(C)C)NC(=O)[C@H](CCSC)NC=O`, the Max in the assay filed under Oryctolagus cuniculus [1] came to 42%. Also, the EC50 in the assay filed under Oryctolagus cuniculus [2] is 0.068 nM.

`COC(=O)[C@H](Cc1ccccc1)NC(=O)[C@@H](CC(C)C)NC(=O)[C@H](CCSC)NC=O` yielded a Max in the assay filed under Oryctolagus cuniculus [1] of 38%. The EC50 in the assay listed under Oryctolagus cuniculus [2] amounted to 36 nM. For the same compound, the Relative potency in the assay listed under Oryctolagus cuniculus [3] is reported as 0.0019.

Turning to `COC(=O)[C@H](Cc1ccccc1)NC(=O)[C@@](C)(CC(C)C)NC(=O)[C@H](CCSC)NC=O`, the Max in the assay filed under Oryctolagus cuniculus [1] turned out to be 42%. The EC50 in the assay filed under Oryctolagus cuniculus [2] was determined as 0.052 nM. In the assay listed under Oryctolagus cuniculus [3], the Relative potency came to 1.3.

For `COC(=O)[C@H](Cc1ccccc1)NC(=O)[C@](C)(NC(=O)[C@H](CCSC)NC=O)C(C)C`, the Max in the assay listed under Oryctolagus cuniculus [1] is reported as 38%. The EC50 in the assay listed under Oryctolagus cuniculus [2] turned out to be 0.11 nM. Also, the Relative potency in the assay filed under Oryctolagus cuniculus [3] worked out at 0.62.

Regarding `CC[C@@](C)(NC(=O)[C@H](CCSC)NC=O)C(=O)N[C@@H](Cc1ccccc1)C(=O)OC`, the Max in the assay listed under Oryctolagus cuniculus [1] was found to be 42%. For the same compound, in the assay filed under Oryctolagus cuniculus [2], the EC50 was determined as 0.48 nM. Moreover, in the assay filed under Oryctolagus cuniculus [3], the Relative potency was found to be 0.14.

For the compound `CSCC[C@H](NC=O)C(=O)N[C@@H](CC(C)C)C(=O)N[C@@H](Cc1ccccc1)C(=O)O`, the Max in the assay listed under Oryctolagus cuniculus [1] was 37%. In addition, the EC50 in the assay filed under Oryctolagus cuniculus [2] is 0.13 nM. This compound displayed a Relative potency in the assay listed under Oryctolagus cuniculus [3] of 0.52.

For the compound `COC(=O)[C@H](Cc1ccccc1)NC(=O)[C@](C)(CC(C)C)NC(=O)[C@H](CCSC)NC=O`, the Max in the assay listed under Oryctolagus cuniculus [1] turned out to be 42%. The EC50 in the assay filed under Oryctolagus cuniculus [2] stood at 0.027 nM. This compound also showed a Relative potency in the assay filed under Oryctolagus cuniculus [3] of 2.5.

Take `COC(=O)[C@H](Cc1ccccc1)NC(=O)C(C)(C)NC(=O)[C@H](CCSC)NC=O` (HELM PEPTIDE1{[O=C[*:2]].M.[Aib].F.[CO[*:1]]}$$$$V2.0): the Max in the assay listed under Oryctolagus cuniculus [1] came to 39%. Moreover, in the assay filed under Oryctolagus cuniculus [2], the EC50 came out at 1.4 nM. The Relative potency in the assay listed under Oryctolagus cuniculus [3] came to 0.049.
